Measured values taken from publication PMC9434606 (RSC Advances, 2022).

Target: T1, pancreatic lipase (Sus scrofa, UniProt P00591)
T1 sequence (P00591 1-450): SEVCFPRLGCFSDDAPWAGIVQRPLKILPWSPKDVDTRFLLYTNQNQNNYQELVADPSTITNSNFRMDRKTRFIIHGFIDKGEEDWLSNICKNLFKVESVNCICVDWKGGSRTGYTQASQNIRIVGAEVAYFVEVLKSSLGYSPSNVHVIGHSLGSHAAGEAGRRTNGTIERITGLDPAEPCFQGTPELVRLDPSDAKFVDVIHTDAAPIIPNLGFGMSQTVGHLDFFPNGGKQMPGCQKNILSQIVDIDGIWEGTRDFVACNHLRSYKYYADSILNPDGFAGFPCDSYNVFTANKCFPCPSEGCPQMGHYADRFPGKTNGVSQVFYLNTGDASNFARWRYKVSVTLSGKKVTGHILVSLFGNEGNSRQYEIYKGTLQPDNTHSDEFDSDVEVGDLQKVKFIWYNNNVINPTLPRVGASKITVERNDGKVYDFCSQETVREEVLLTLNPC
Experiment: pancreatic lipase inhibition assay
Format: biochemical

Row | Structure (SMILES) | IC50 [µM]
1 | Cc1cc(O)cc2oc(=O)c3c(O)cc(O)cc3c12 [Compound 5, alternariol] | 56.8 ± 0.77
2 | COc1cc(O)c(C(=O)O)c(-c2cc(O)c(O)cc2C)c1 [Compound 4, altenusin] | 21.5 ± 0.97
3 | COc1cc(O)c2c(c1)C1(OC2=O)C(C)=CC(=O)C1O (stereo not drawn) [Compound 1, talaroflavone] | 73.8 ± 0.82
